Here are results for 53 sequences from the OligoGym collection.

Values joined by “and” are separate entries in the source; they are usually repeats but may differ in a detail not shown here. Equal entries are not always repeated. After the bases stand the sugars from the 5' end (letter, count) and the backbone: PS all phosphorothioate, else s phosphorothioate and o phosphodiester by linkage. Methylation of C is not given here. e = 2'-O-(2-methoxyethyl) (MOE); k = constrained ethyl (cEt); d = 2'-deoxy (DNA)

One data set deals with DGAT2. To be noted: ASO.
For the next data set, the target named is APOL1. To be noted: ASO.

As to “TGCTGAGCTCATGAGAAGCT (sugars e5 d10 e5, PS)”, the target mRNA inhibition is 75% and 57% with DGAT2 (HepG2, 2.5 µM); 92% and 83% with DGAT2 (HepG2, 10 µM).
In the data set with DGAT2 (HepG2, 0.12 µM), “CAGCCTGGACAAGTCCTGCC (sugars e2 d13 e5, PS)” displayed a target mRNA inhibition of 72%.
With “GCACAGCGATGAGCCAGCAA (sugars e5 d10 e5, PS)”, the target mRNA inhibition was 50% and 45% and 69% in the data set with DGAT2 (HepG2, 2.5 µM); 92% and 89% and 94% in the data set with DGAT2 (HepG2, 10 µM).
In the case of “TCCGCAGGGTGACTGCATTC (sugars e5 d10 e5, PS)”, in the data set with DGAT2 (HepG2, 0.12 µM), the target mRNA inhibition was 48%.
Consider “AGGAAAACTTAGGCATGCTT (sugars e5 d10 e5, PS)”, for which the target mRNA inhibition with DGAT2 (HepG2, 2.5 µM) was determined as 58%; with DGAT2 (HepG2, 10 µM), 84%.
As for “CCACTGGAGCACTGAGATGA (sugars e3 d14 e3, PS)”, the target mRNA inhibition with DGAT2 (HepG2, 0.12 µM) was found to be 62%.
Take “GCAGGCCTCGGGAAGCACCT (sugars e5 d10 e5, PS)”: the target mRNA inhibition with DGAT2 (HepG2, 2.5 µM) was 69% and 67%; with DGAT2 (HepG2, 10 µM), 93% and 87%.
“CCCAGTTTCGGACCCACTGT (sugars e3 d14 e3, PS)” showed a target mRNA inhibition with DGAT2 (HepG2, 0.12 µM) of 76%.
The same measure, in the same setting: the same measure for “AGAGCTTCACCAGGGCCTCC (sugars e5 d10 e5, PS)”: 46%; for “GGAACTTCTTCTGGACCCAT (sugars e5 d10 e5, PS)”: 36%.
Turning to “TGGGAACAGCAGCATCAGCA (sugars e5 d10 e5, PS)”, the target mRNA inhibition with DGAT2 (HepG2, 2.5 µM) is 65%; with DGAT2 (HepG2, 10 µM), 80%.
“CTGCTTGTACACTTCATTCT (sugars e5 d10 e5, PS)” displayed a target mRNA inhibition in the data set with DGAT2 (HepG2, 0.12 µM) of 58%.
The same measure, in the same setting: under “CAGAGTTATCCTCAATTCAC (sugars e5 d10 e5, PS)” stands 34%.
Take “GCTTGTACACTTCATTCTCT (sugars e5 d10 e5, PS)”: the target mRNA inhibition with DGAT2 (HepG2, 2.5 µM) turned out to be 42%; with DGAT2 (HepG2, 10 µM) it was 85%.
Take “TTTCCACTCTTCTGACAGGT (sugars e5 d10 e5, PS)”: the target mRNA inhibition with DGAT2 (HepG2, 2.5 µM) was 77% and 69%; with DGAT2 (HepG2, 10 µM), 93% and 92%.
The sequence “TGGTCTTGTGCTTGTCGAAG (sugars e5 d10 e5, PS)” displayed a target mRNA inhibition with DGAT2 (HepG2, 0.12 µM) of 41%.
On to “GCCTGGACAAGTCCTGCCCA (sugars e2 d13 e5, PS)”, for which the target mRNA inhibition is 78% in the data set with DGAT2 (HepG2, 0.12 µM); 44% and 45% in the data set with DGAT2 (HepG2, 2.5 µM); 87% with DGAT2 (HepG2, 10 µM); 55% with DGAT2 (HepG2, 20 µM).
As for “TCTCACATGCCTGAGGGCAG (sugars e5 d10 e5, PS)”, the target mRNA inhibition was determined as 70% in the data set with DGAT2 (HepG2, 2.5 µM) and 82% in the data set with DGAT2 (HepG2, 10 µM).
Turning to “GAATGGTGTGTTGGCTCCCT (sugars e5 d10 e5, PS)”, the target mRNA inhibition in the data set with DGAT2 (HepG2, 2.5 µM) was determined as 54%; in the data set with DGAT2 (HepG2, 10 µM), 75%.
For “GCCCTCCTCGAAGATCACCT (sugars e5 d10 e5, PS)”, the target mRNA inhibition in the data set with DGAT2 (HepG2, 2.5 µM) was 37%; with DGAT2 (HepG2, 10 µM), 76%.
On to “TGAGCTCTCAAGTCTTCCTC (sugars e5 d10 e5, PS)”, for which the target mRNA inhibition in the data set with DGAT2 (HepG2, 2.5 µM) was determined as 55%; with DGAT2 (HepG2, 10 µM) it was 89%.
Turning to “GAGATGGTGATAAGGCAGCA (sugars e5 d10 e5, PS)”, the target mRNA inhibition in the data set with DGAT2 (HepG2, 2.5 µM) was 46% and 50%; in the data set with DGAT2 (HepG2, 10 µM), 80%.
In the data set with DGAT2 (HepG2, 0.12 µM), “TGCTGGATCCAGTGCCCCAT (sugars e5 d10 e5, PS)” gave a target mRNA inhibition of 44%.
“TGGACAAGTCCTGCCCATCT (sugars e3 d14 e3, PS)”: the target mRNA inhibition in the data set with DGAT2 (HepG2, 0.12 µM) is 69%.
Regarding “GCCTGGGAACTTCTTGCTCA (sugars e5 d10 e5, PS)”, in the data set with DGAT2 (HepG2, 0.12 µM), the target mRNA inhibition amounted to 47%.
For “TGTGCTGCATCCATGTCATC (sugars e5 d10 e5, PS)”, in the data set with DGAT2 (HepG2, 0.12 µM), the target mRNA inhibition was 36%.
In the data set with DGAT2 (HepG2, 0.12 µM), “GCCCAGTTTCGGACCCACTG (sugars e2 d13 e5, PS)” returned a target mRNA inhibition of 82%.
Regarding “CTCCTGTTTGATGGGTAAAA (sugars e5 d10 e5, PS)”, the target mRNA inhibition came to 90% in the data set with DGAT2 (HepG2, 2.5 µM) and 80% in the data set with DGAT2 (HepG2, 10 µM).
For the sequence “GTTTCGGACCCACTGTGACC (sugars e2 d13 e5, PS)”, the target mRNA inhibition in the data set with DGAT2 (HepG2, 0.12 µM) amounted to 70%.
On the same count and under the same terms, the same measure for “CGAAGATCACCTGCTTGTAC (sugars e5 d10 e5, PS)”: 63%.
“GCAGCCTGGACAAGTCCTGC (sugars e2 d13 e5, PS)” showed a target mRNA inhibition with DGAT2 (HepG2, 0.12 µM) of 77%.
The same measure, in the same setting: under “GGAGCCCTCACAGGGCCAGG (sugars e5 d10 e5, PS)” stands 38%.
For the sequence “AGCAGGTTGTGTGTCTTCAC (sugars e5 d10 e5, PS)”, the target mRNA inhibition in the data set with DGAT2 (HepG2, 0.12 µM) was 55% and 77%; with DGAT2 (HepG2, 2.5 µM), 0%.
On to GGGTCAAAAGCGATGG (sugars k4 d9 k3, PS), for which the target mRNA inhibition with APOL1 (A431, 0.0625 µM) came to 50%; with APOL1 (A431, 0.25 µM), 79%; with APOL1 (A431, 1 µM) it was 88%.
With “GGGAATTATGGAATTG (sugars kkkddddkekeddddd, PS)”, the target mRNA inhibition in the data set with APOL1 (A431, 2 µM) is 63%.
As to “ATTCAGAATTTCCACT (sugars k2 d4 e3 k2 d5, PS)”, in the data set with APOL1 (A431, 2 µM), the target mRNA inhibition was found to be 77%.
In the case of “AGTATTGTTTTTGTGG (sugars kkkddddkekekdddd, PS)”, the target mRNA inhibition with APOL1 (A431, 2 µM) was 55%.
As to “GCTTTAAACTCAGGTG (sugars kddddkekekeddddd, PS)”, the target mRNA inhibition with APOL1 (A431, 2 µM) amounted to 67%.
The same measure, in the same setting: under “AAGCTTTAAACTCAGG (sugars kkkddddkekeddddd, PS)” stands 84%.
Still for that read-out and setting: the same measure for “ATGCTAATTTTCTGAC (sugars k2 d4 e3 k2 d5, PS)”: 88%.
Take ATTGGCTCAGTGACCC (sugars k4 d9 k3, PS): the target mRNA inhibition is 72% and 76% with APOL1 (A431, 0.25 µM); 88% and 86% in the data set with APOL1 (A431, 1 µM).
For GAAAATATCAGAGTGT (sugars k4 d9 k3, PS), the target mRNA inhibition is 29% with APOL1 (A431, 0.0625 µM); 68% in the data set with APOL1 (A431, 0.25 µM); 90% with APOL1 (A431, 1 µM).
“TCTCATGGTACAGGAG (sugars kkddddkekekkdddd, PS)” came in with a target mRNA inhibition with APOL1 (A431, 2 µM) of 26%.
For the sequence “TGTTATATTTGATCCT (sugars kkddddekekeddddd, PS)”, the target mRNA inhibition with APOL1 (A431, 0.0156 µM) was found to be 17%; in the data set with APOL1 (A431, 0.0625 µM), 41%; in the data set with APOL1 (A431, 0.25 µM), 71%; with APOL1 (A431, 1 µM) it was 85%; with APOL1 (A431, 2 µM), 94%.
With “CGCAATGCTGACTTGG (sugars k2 d4 e4 k2 d4, PS)”, the target mRNA inhibition with APOL1 (A431, 2 µM) is 68%.
In the data set with APOL1 (A431, 2 µM), “TATATTTGATCCTCAA (sugars kdddddkekekddddd, PS)” had a target mRNA inhibition of 89%.
“GTTCAAAAGCAGCATT (sugars kkddddkekekkdddd, PS)”: in the data set with APOL1 (A431, 2 µM), the target mRNA inhibition came to 34%.
Turning to “TTCTCATGGTACAGGA (sugars kkddddkekekddddd, PS)”, the target mRNA inhibition with APOL1 (A431, 2 µM) stood at 76%.
Still for that read-out and setting: under “GAGTATTGTTTTTGTG (sugars kddddkekekeddddd, PS)” stands 94%.
With CCTTAATGTAAATTCC (sugars k4 d9 k3, PS), the target mRNA inhibition in the data set with APOL1 (A431, 0.0625 µM) came out at 32%; in the data set with APOL1 (A431, 0.25 µM), 61%; with APOL1 (A431, 1 µM) it was 80%.
On to “CTTTATACCAGTGTCT (sugars k3 d4 k3 e1 d5, PS)”, for which the target mRNA inhibition was 19% with APOL1 (A431, 0.0156 µM); 54% with APOL1 (A431, 0.0625 µM); 78% with APOL1 (A431, 0.25 µM); 91% in the data set with APOL1 (A431, 1 µM); 95% in the data set with APOL1 (A431, 2 µM).
With “GTTATGAAATTATTGG (sugars kkkddddkdkdkdddd, PS)”, the target mRNA inhibition with APOL1 (A431, 2 µM) was 91%.
Sequence “CATTCAGAATTTCCAC (sugars kkkddddkdkdkdddd, PS)” yielded a target mRNA inhibition with APOL1 (A431, 2 µM) of 88%.
